# Data from patent publication US9012365B2, “Compatibility agents for herbicidal formulations comprising 2,4-(Dichlorophenoxy) acetic acid salts” (priority 2006, dated 2015).
# Columns and labels:
# Type in all cases: physicochemical
# [1] = Appearance of 10 g solution of (2.5 wt % ai 2,4-D DMA + tested chemical) after adding 40% AMS; conditions: summary statement of the description
# [2] = Solubility of tested chemical in DI water
# Procedure: (§1) In example 1, the electrolyte tolerance of 6 chemicals with and without the presence of 2,4-D amine was evaluated in ammonium sulfate system.
# [3] = Appearance of 10 g solution of (2.5 wt % ai 2,4-D DMA + tested chemical) after adding 40% AMS; conditions: for 0 gram Appearance / Addition Weight of 40% AMS: System was clear after adding / Addition Weight of 40% AMS: System was cloud after adding: 0.13 wt % a.i. of tested chemical, 2.5 wt % ai 2,4-D DMA; for 0 gram Appearance: 0 gram 40% AMS; for Addition Weight of 40% AMS: System was clear after adding / Addition Weight of 40% AMS: System was cloud after adding: 10 g solution; for Added 40% AMS wt into 10 g (2.5% 2,4-D + 0.13% tested chemical in DI water), hazy / Added 40% AMS wt into 10 g (2.5% 2,4-D + 0.13% tested chemical in DI water), still clear: Table of Example 1; for Appearance, added 40% AMS wt into 10 g (2.5% 2,4-D + 0.13% tested chemical in DI water): at 0 g AMS added, or at all additions (All)
# Procedure: In this example, the appearance of a 10 g solution of (2.5 wt % ai 2,4-D DMA+tested chemical) was evaluated after adding 40% AMS
# [4] = Electrolyte tolerance: 40% AMS added into 10 g 0.13% tested chemical in DI water; conditions: for Appearance, added 40% AMS wt into 10 g 0.13% tested chemical in DI water: at 0 g AMS added, or at all additions (All); for Added 40% AMS wt into 10 g 0.13% tested chemical in DI water, hazy / Added 40% AMS wt into 10 g 0.13% tested chemical in DI water, still clear: no 2,4-D; for Solubility / compatibility in water or AMS solution (in words): without 2,4-D amine
# Procedure: as §1
# [5] = System appearance and pH after adding chemicals into System A
# Source text: System appearance after adding various chemicals into “System A” which was 100 g of 3% 2,4-D DMA (50%)+90% water (1000 ppm)+7% Ammonium sulfate (40%).
# [6] = Crystal formation of 2,4-D in 1000 ppm hard water + AMS after post-adding surfactant; conditions: for Appearance of sample: 0.069 g surfactant added to 3% 2,4-DMA (50%) + 90% water (1000 ppm hardness) + 7% AMS (40%), room temperature
# Source text: FIG. 3 is a photograph illustrating the effect of various concentrations of cocoamine-2EO (“Coco-2”) and/or tallow-10EO (“Tallow-10”) on crystal formation of 2,4-D. (A) 0% Coco-2/0% Tallow-10. (B) 100% Coco-2/0% Tallow-10. (C) 45% Coco-2/55% Tallow-10. (D) 50% Coco-2/50% Tallow-10. (E) 55% Coco-2/45% Tallow-10.(F) 60% Coco-2/40% Tallow-10. (G) 0% Coco-2/100% Tallow-10.
# In FIG. 3, sample (0:0) was 3% 2,4-DMA (50%)+90% water (1000 ppm hardness)+7% AMS (40%) and it readily formed crystals at room temperature.
# The first sample, (0:0), on the left had no surfactant and it had about 15% crystal at the bottom. The rest of the samples had 0.069 g surfactant post-added to the first sample. […] Sample (0:100) was a little hazy with ˜5% crystal at bottom.
# [7] = Solubility of tested chemical in 40% AMS (ammonium sulfate)
# Procedure: as §1
# [8] = Compatibility of 2,4-D DMA premix with 28% N fertilizer (phase diagram, coarse particle formation)
# Procedure: FIG. 2 is a photograph illustrating the effect of cocoamine-2EO methylchloride on coarse particle formation of 2,4-D ammonium salt. (A) 90% 28% N; 1% 2,4-D DMA; and 9% DI water. (B) 90% 28% N; 1% 2,4-D DMA; 5.5% DI water; and 3.5% Coco 2EO quat.
# However, if 10% pre-mixed (8:2 water: 2,4-D DMA-50% ai) is added to 90% 28% N, a hazy system with coarse particles (2,4-D NH4 salt) will form in a few minutes at room temperature.
# [9] = added into 100 g System A, added wt 0.815 g Ethoquad, 0.079 g NH4OH, 0.091 g dimethylamine, 1.07 g NaOH
# [10] = added wt 1.35 grams into 100 g System A
compound,measurement,setting,value
ethoxylated (2EO) cocoamide oxides,"Suitability for increasing the solubility of 2,4-D non-amine salt (in words)",[1],ineffective
Castor oil ethoxylate-55EO,Solubility of tested chemical in DI Water,[2],>20%
same,0 gram Appearance,[3],Clear
same,Addition Weight of 40% AMS: System was clear after adding,[3],0.476 grams
same,Addition Weight of 40% AMS: System was cloud after adding,[3],0.554 grams
same,"Added 40% AMS wt into 10 g (2.5% 2,4-D + 0.13% tested chemical in DI water), hazy",[3],0.55 g
same,"Added 40% AMS wt into 10 g (2.5% 2,4-D + 0.13% tested chemical in DI water), still clear",[3],0.48 g
same,"Appearance, added 40% AMS wt into 10 g (2.5% 2,4-D + 0.13% tested chemical in DI water)",[3],clear
same,"Appearance, added 40% AMS wt into 10 g 0.13% tested chemical in DI water",[4],clear
same,"Added 40% AMS wt into 10 g 0.13% tested chemical in DI water, hazy",[4],3.74 hazy g
same,"Added 40% AMS wt into 10 g 0.13% tested chemical in DI water, still clear",[4],3.63 g
"[Na+].[OH-] [10% NaOH, NaOH]",Appearance,[5]; [9],clear
same,pH,[5]; [9],6
same,Appearance,[5]; [10],crystals re-appeared
same,pH,[5]; [10],10
"N.O [NH4OH 28-30%, NH4OH]",Appearance,[5]; [9],hazy
same,pH,[5]; [9],8
CC(C)O [Isopropyl alcohol],0 gram Appearance,[3],Clear
same,Addition Weight of 40% AMS: System was cloud after adding,[3],0.461 grams
same,"Suitability for increasing the solubility of 2,4-D non-amine salt (in words)",[1],ineffective
CCCCCCCCO [octanol],"Suitability for increasing the solubility of 2,4-D non-amine salt (in words)",[1],ineffective
CN1CCCC1=O [Methyl-2-pyrrolidinone],0 gram Appearance,[3],Clear
same,Addition Weight of 40% AMS: System was clear after adding,[3],0.36 grams
same,Addition Weight of 40% AMS: System was cloud after adding,[3],0.567 grams
same,"Suitability for increasing the solubility of 2,4-D non-amine salt (in words)",[1],ineffective
Tallowamine-10EO,Appearance of sample,[6],dissolved most crystals
same,Appearance of sample,[6]; listed as Sample (0:100),a little hazy
same,Crystal at bottom,[6]; 0.069 g surfactant post-added to sample (0:0),~5%
same,0 gram Appearance,[3],Clear
same,Addition Weight of 40% AMS: System was clear after adding,[3],1.503 grams
same,Addition Weight of 40% AMS: System was cloud after adding,[3],1.717 grams
Castor oil ethoxylate-10EO,Solubility of tested chemical in DI Water,[2],<0.007%
same,0 gram Appearance,[3],Haze
same,Addition Weight of 40% AMS: System was clear after adding,[3],Haze
same,Addition Weight of 40% AMS: System was cloud after adding,[3],0 grams
same,"Appearance, added 40% AMS wt into 10 g (2.5% 2,4-D + 0.13% tested chemical in DI water)",[3],All hazy
same,"Appearance, added 40% AMS wt into 10 g 0.13% tested chemical in DI water",[4],All hazy
same,Solubility / compatibility in water or AMS solution (in words),[4],little compatibility
same,Solubility of testes chemical in 40% AMS,[7],<0.007%
Cocoamine-2EO,Appearance of sample,[6],hazy product without crystals
same,Appearance of sample,[6]; listed as Sample (100:0),hazy sample with a little oily sediment at bottom
same,Solubility of tested chemical in DI Water,[2],<0.016%
same,"Compatibility in 2,4-D amine and AMS solution (in words)",[3],very good compatibility
same,0 gram Appearance,[3],Clear
same,Addition Weight of 40% AMS: System was clear after adding,[3],2.096 grams
same,Addition Weight of 40% AMS: System was cloud after adding,[3],2.264 grams
same,"Added 40% AMS wt into 10 g (2.5% 2,4-D + 0.13% tested chemical in DI water), hazy",[3],2.26 g
same,"Added 40% AMS wt into 10 g (2.5% 2,4-D + 0.13% tested chemical in DI water), still clear",[3],2.1 g
same,"Appearance, added 40% AMS wt into 10 g (2.5% 2,4-D + 0.13% tested chemical in DI water)",[3],clear
same,"Appearance, added 40% AMS wt into 10 g 0.13% tested chemical in DI water",[4],All hazy
same,Solubility / compatibility in water or AMS solution (in words),[4],little compatibility
same,Solubility of testes chemical in 40% AMS,[7],<0.016%
Nonylphenol-30EO,0 gram Appearance,[3],Clear
same,Addition Weight of 40% AMS: System was clear after adding,[3],0.487 grams
same,Addition Weight of 40% AMS: System was cloud after adding,[3],0.584 grams
C10-12 alcohol ethoxylate (5EO),0 gram Appearance,[3],Clear
same,Addition Weight of 40% AMS: System was clear after adding,[3],1.035 grams
same,Addition Weight of 40% AMS: System was cloud after adding,[3],1.226 grams
"CNC [Dimethylamine 40%, Dimethylamine]",Appearance,[5]; [9],slightly hazy
same,pH,[5]; [9],7.8
Ethoxylated (6EO) caprylic & capric glycerol ester,0 gram Appearance,[3],Clear
same,Addition Weight of 40% AMS: System was cloud after adding,[3],0.163 grams
Castor oil ethoxylate-20EO,0 gram Appearance,[3],Clear
same,Addition Weight of 40% AMS: System was clear after adding,[3],0.279 grams
same,Addition Weight of 40% AMS: System was cloud after adding,[3],0.521 grams
Cocoamine-2EO methylchloride,Solubility of tested chemical in DI Water,[2],All clear
same,"Compatibility in 2,4-D amine and AMS solution (in words)",[3],very good compatibility agent
same,0 gram Appearance,[3],Clear
same,Addition Weight of 40% AMS: System was clear after adding,[3],2.21 grams
same,Addition Weight of 40% AMS: System was cloud after adding,[3],2.511 grams
same,"Added 40% AMS wt into 10 g (2.5% 2,4-D + 0.13% tested chemical in DI water), hazy",[3],2.51 g hazy
same,"Added 40% AMS wt into 10 g (2.5% 2,4-D + 0.13% tested chemical in DI water), still clear",[3],2.21 g
same,"Appearance, added 40% AMS wt into 10 g (2.5% 2,4-D + 0.13% tested chemical in DI water)",[3],clear
same,Spray solution obtained,"[8]; 10% pre-mixed (8:2 Ethoquad C/12W-43.7%: 2,4-D DMA-50% ai) added to 90% 28% N",non-nozzle plugging spray solution
same,"Effect on formation of coarse particles of the 2,4-D ammonium salt","[8]; 28% N fertilizer, room temperature, FIG. 2",prevent or minimize the formation of coarse particles
same,"Appearance, added 40% AMS wt into 10 g 0.13% tested chemical in DI water",[4],All clear
same,Solubility / compatibility in water or AMS solution (in words),[4],excellent solubility in water and electrolyte tolerance
same,Solubility of testes chemical in 40% AMS,[7],All clear
same,pH change of System A (in words),[5],only changed slightly
same,Appearance,[5]; [9],clear
same,pH,[5]; [9],5.2
2-propylheptanol-5 EO,0 gram Appearance,[3],Clear
same,Addition Weight of 40% AMS: System was cloud after adding,[3],0.633 grams
Ethoxylated (20EO) sorbitol ester,0 gram Appearance,[3],Clear
same,Addition Weight of 40% AMS: System was clear after adding,[3],1.037 grams
same,Addition Weight of 40% AMS: System was cloud after adding,[3],1.25 grams
Iso C13 + 4EO phosphate ester (acid),0 gram Appearance,[3],Clear
same,Addition Weight of 40% AMS: System was cloud after adding,[3],0.324 grams
Castor oil ethoxylate-36EO,Solubility of tested chemical in DI Water,[2],>20%
same,0 gram Appearance,[3],Clear
same,Addition Weight of 40% AMS: System was clear after adding,[3],1.726 grams
same,Addition Weight of 40% AMS: System was cloud after adding,[3],2.141 grams
same,"Added 40% AMS wt into 10 g (2.5% 2,4-D + 0.13% tested chemical in DI water), hazy",[3],2.14 g
same,"Added 40% AMS wt into 10 g (2.5% 2,4-D + 0.13% tested chemical in DI water), still clear",[3],1.73 g
same,"Appearance, added 40% AMS wt into 10 g (2.5% 2,4-D + 0.13% tested chemical in DI water)",[3],clear
same,AMS electrolyte tolerated relative to 55EO castor oil ethoxylate,"[3]; in 2.5% 2,4-D DMA solution",3 times
same,"Appearance, added 40% AMS wt into 10 g 0.13% tested chemical in DI water",[4],clear
same,"Added 40% AMS wt into 10 g 0.13% tested chemical in DI water, hazy",[4],3.74 hazy g
same,"Added 40% AMS wt into 10 g 0.13% tested chemical in DI water, still clear",[4],3.57 g
same,Solubility of testes chemical in 40% AMS,[7],<0.036%
CCCCC(CC)COC(=O)CC(C(=O)OCC(CC)CCCC)S(=O)(=O)[O-].[Na+] (stereo not shown) [Sodium dioctyl sulfonsuccinate],0 gram Appearance,[3],very cloudy
same,Addition Weight of 40% AMS: System was clear after adding,[3],very cloudy
same,Addition Weight of 40% AMS: System was cloud after adding,[3],0 grams
same,"Suitability for increasing the solubility of 2,4-D non-amine salt (in words)",[1],ineffective
Hexyl glycoside,Solubility of tested chemical in DI Water,[2],All clear
same,"Compatibility in 2,4-D amine and AMS solution (in words)",[3],poor compatibility agent
same,0 gram Appearance,[3],Clear
same,Addition Weight of 40% AMS: System was clear after adding,[3],0.179 grams
same,Addition Weight of 40% AMS: System was cloud after adding,[3],0.359 grams
same,"Added 40% AMS wt into 10 g (2.5% 2,4-D + 0.13% tested chemical in DI water), hazy",[3],0.36 g hazy
same,"Added 40% AMS wt into 10 g (2.5% 2,4-D + 0.13% tested chemical in DI water), still clear",[3],0.18 g
same,"Appearance, added 40% AMS wt into 10 g (2.5% 2,4-D + 0.13% tested chemical in DI water)",[3],clear
same,"Appearance, added 40% AMS wt into 10 g 0.13% tested chemical in DI water",[4],All clear
same,Solubility / compatibility in water or AMS solution (in words),[4],excellent solubility in water and electrolyte tolerance
same,Solubility of testes chemical in 40% AMS,[7],All clear
